Measured values taken from article PMC10893631, “Receptor-based pharmacophore modeling, molecular docking, synthesis and biological evaluation of novel VEGFR-2, FGFR-1, and BRAF multi-kinase inhibitors” (BMC Chemistry, 2024).
Like-named read-outs stand apart in the source and are kept apart here.

Columns and labels:
NCI/ADR-RES = experiment: NCI SRB growth inhibition (single dose 10 µM / five-dose); type: cell-based, human; details: Homo sapiens; for inhibition at 10 µM: NCI/ADR-RES (Ovarian cancer), read-out: GI%; for GI50: NCI/ADR-RES, Ovarian cancer, five-dose
Protocol: (§1) Screening of cytotoxic activity against a panel of sixty human tumor cell lines The selected compounds by NCI were evaluated for their anticancer activity in a two- stage process. […] Then, the output from the single dose screen is reported as a mean graph. […] Assay protocol. […] For a typical screening experiment, cells are inoculated into 96 well microtiter plates in 100 µL at plating densities ranging from 5000 to 40,000 cells/well depending on the doubling time of individual cell lines. […] After 24 h, two plates of each cell line are fixed in situ with TCA, to represent a measurement of the cell population for each cell line at the time of drug addition (Tz). The experimental drugs are solubilized in dimethyl sulfoxide at 400-fold the desired final maximum test concentration and stored frozen prior to use. At the time of drug addition, an aliquot of frozen concentrate is thawed and diluted to twice the desired final maximum test concentration with complete medium containing 50 µg/mL gentamicin. Additional four, 10-fold or ½ log serial dilutions are made to provide a total of five drug concentrations plus control. Aliquots of 100 mL of these different drug dilutions are added to the appropriate microtiter wells already containing […] of medium, resulting in the required final drug concentrations. […] For adherent cells, the assay is terminated by the addition of cold TCA. […] The supernatant is discarded, and the plates are washed five times with tap water and air dried. Sulforhodamine B (SRB) solution ([…]) at 0.4% (w/v) in 1% acetic acid is added to each well, and plates are incubated for 10 min at room temperature. After staining, unbound dye is removed by washing five times with 1% acetic acid and the plates are air dried. […] Using the seven absorbance measurements [time zero, (Tz), control growth, (C), and test growth in the presence of drug at the five concentration levels (Ti)], the percentage growth is calculated at each of the drug concentrations levels. Percentage growth inhibition is calculated as: [(Ti Tz)/(C–Tz)] x 100 for concentrations for which Ti>/=Tz and [(Ti-Tz)/Tz] x 100 for concentrations for which Ti < Tz. Three dose response parameters are calculated for each experimental agent. […] The drug concentration resulting in total growth inhibition (TGI) is calculated from Ti = Tz. […] Values are calculated for each of these three parameters if the level of activity is reached; however, if the effect is not reached or is exceeded, the value for that parameter is expressed as greater or less than the maximum or minimum concentration tested.

UACC-257 = experiment: as above; type: cell-based, human; details: Homo sapiens; for inhibition at 10 µM: UACC-257 (Melanoma), read-out: GI%; for GI50: UACC-257, Melanoma, five-dose
Protocol: as §1

HOP-92 = experiment: as above; type: cell-based, human; details: Homo sapiens; for inhibition at 10 µM: HOP-92 (Non-small cell lung cancer), read-out: GI%
Protocol: as §1

UACC-62 = experiment: as above; type: cell-based, human; details: Homo sapiens; for inhibition at 10 µM: UACC-62 (Melanoma), read-out: GI%; for GI50: UACC-62, Melanoma, five-dose
Protocol: as §1

HL-60(TB) = experiment: as above; type: cell-based, human; details: Homo sapiens; for inhibition at 10 µM: HL-60(TB) (Leukemia), read-out: GI%; for GI50: HL-60(TB), Leukemia, five-dose
Protocol: as §1

786–0 = experiment: as above; type: cell-based, human; details: Homo sapiens; for inhibition at 10 µM: 786–0 (Renal cancer), read-out: GI%; for GI50: 786–0, Renal cancer, five-dose
Protocol: as §1

LOX IMVI = experiment: as above; type: cell-based, human; details: Homo sapiens; for inhibition at 10 µM: LOX IMVI (Melanoma), read-out: GI%; for GI50: LOX IMVI, Melanoma, five-dose
Protocol: as §1

NCI-H23 = experiment: as above; type: cell-based, human; details: Homo sapiens; for inhibition at 10 µM: NCI-H23 (Non-small cell lung cancer), read-out: GI%; for GI50: NCI-H23, Non-small cell lung cancer, five-dose
Protocol: as §1

SF-539 = experiment: as above; type: cell-based, human; details: Homo sapiens; for inhibition at 10 µM: SF-539 (CNS cancer), read-out: GI%; for GI50: SF-539, CNS cancer, five-dose
Protocol: as §1

NCI-H322M = experiment: as above; type: cell-based, human; details: Homo sapiens; for inhibition at 10 µM: NCI-H322M (Non-small cell lung cancer), read-out: GI%; for GI50: NCI-H322M, Non-small cell lung cancer, five-dose
Protocol: as §1

VEGFR-2 = biological target: T1, VEGFR-2 (Homo sapiens, UniProt P35968); experiment: VEGFR-2 kinase assay kit (BPS), Kinase-Glo Max luminescence; type: biochemical; details: VEGFR-2, single dose 10 µM, duplicate, mean ± SD
T1 construct: purchased BPS Biosciences 40325
Protocol: 2. Biochemical kinase assay procedure
The inhibitory activity against different kinases was determined using kinase kits […]
from BPS Biosciences and kinase-Glo Max luminescence kinase assay kit (Promega).
The assay was carried out according to the protocol provided by the manufacturer. A stock solution of the synthesized derivatives in 100% DMSO was prepared. Subsequently, the compounds were diluted to 10% DMSO.
A master mixture was prepared according to the number of wells. For VEGFR-2 and FGFR-1 biochemical assays each well include 6 μl of 5x Kinase Buffer 1 + 1 μl of 500 μM ATP + 1 μl of PTK Substrate (Poly-Glu,Tyr 4:1) (10 mg/ml) + 17 μl of distilled water. For BRAF assay each well include 6 μl of 5x Kinase Buffer 1 + 1 μl of ATP (500 μM) + 10 μl of 5X Raf substrate + 8 μl of distilled water. 1x Kinase buffer 1 was prepared by mixing 600 μl of 5x Kinase Buffer 1 with 2400 μl water to give 3 mL. Kinases were thawed on ice and were diluted with 1x Kinase Buffer 1.
To start the biochemical reaction, 25 µL of the master mixture was added to each well in 96 well plate. 5 µL of 10% DMSO was added to positive control wells and blank wells. 5 µL of diluted inhibitor was added to each well labelled with the test inhibitor so that the final concentration of DMSO is 1% in all reactions. Then 20 µL of (1 ng / μl) in case of VEGFR-2 and FGFR-1 or (2.5 ng/μl) in case of BRAF in 1x kinase buffer was added to positive control wells and wells labelled with the inhibitor, while 20 µL 1x kinase buffer 1 was added to the […]
The plate was incubated at 30 °C for 45 min. Subsequently, 50 μl of Kinase-Glo Max luminescence reagent was added to each well and the plate was covered with aluminum foil and incubated at room temperature 15 min. Finally, the luminescence was recorded using multimode microplate reader. Kinase activity assays were performed in duplicate at each […]
The luminescence data were analyzed as follows. The difference between luminescence intensities in the absence of kinase (Lut) and in the presence of kinase (Luc) was defined as 100 % activity (Lut – Luc). Using luminescence signal (Lu) in the presence of the compound, % activity was calculated as: % activity = {(Lut - Lu)/(Lut - Luc)}×100%. The […]
concentration of the test compounds required to reduce the kinase activity by 50% was determined from dose-response curves and recorded as their IC50. […]

[1] = test system: NCI panel of 60 tumor cell lines; experiment: NCI SRB growth inhibition, whole panel mean (single dose 10 µM / five-dose); type: cell-based, human; details: Homo sapiens; for GI50: mean over NCI cancer cell lines, five-dose
Protocol: as §1

[2] = mean over NCI 60 cell lines, > 100% = lethal effect, read-out: mean growth inhibition % (GI%)
[3] = mean over NCI panel of 60 tumor cell lines, read-out: Mean growth inhibition %

T1 sequence (P35968 20-1356): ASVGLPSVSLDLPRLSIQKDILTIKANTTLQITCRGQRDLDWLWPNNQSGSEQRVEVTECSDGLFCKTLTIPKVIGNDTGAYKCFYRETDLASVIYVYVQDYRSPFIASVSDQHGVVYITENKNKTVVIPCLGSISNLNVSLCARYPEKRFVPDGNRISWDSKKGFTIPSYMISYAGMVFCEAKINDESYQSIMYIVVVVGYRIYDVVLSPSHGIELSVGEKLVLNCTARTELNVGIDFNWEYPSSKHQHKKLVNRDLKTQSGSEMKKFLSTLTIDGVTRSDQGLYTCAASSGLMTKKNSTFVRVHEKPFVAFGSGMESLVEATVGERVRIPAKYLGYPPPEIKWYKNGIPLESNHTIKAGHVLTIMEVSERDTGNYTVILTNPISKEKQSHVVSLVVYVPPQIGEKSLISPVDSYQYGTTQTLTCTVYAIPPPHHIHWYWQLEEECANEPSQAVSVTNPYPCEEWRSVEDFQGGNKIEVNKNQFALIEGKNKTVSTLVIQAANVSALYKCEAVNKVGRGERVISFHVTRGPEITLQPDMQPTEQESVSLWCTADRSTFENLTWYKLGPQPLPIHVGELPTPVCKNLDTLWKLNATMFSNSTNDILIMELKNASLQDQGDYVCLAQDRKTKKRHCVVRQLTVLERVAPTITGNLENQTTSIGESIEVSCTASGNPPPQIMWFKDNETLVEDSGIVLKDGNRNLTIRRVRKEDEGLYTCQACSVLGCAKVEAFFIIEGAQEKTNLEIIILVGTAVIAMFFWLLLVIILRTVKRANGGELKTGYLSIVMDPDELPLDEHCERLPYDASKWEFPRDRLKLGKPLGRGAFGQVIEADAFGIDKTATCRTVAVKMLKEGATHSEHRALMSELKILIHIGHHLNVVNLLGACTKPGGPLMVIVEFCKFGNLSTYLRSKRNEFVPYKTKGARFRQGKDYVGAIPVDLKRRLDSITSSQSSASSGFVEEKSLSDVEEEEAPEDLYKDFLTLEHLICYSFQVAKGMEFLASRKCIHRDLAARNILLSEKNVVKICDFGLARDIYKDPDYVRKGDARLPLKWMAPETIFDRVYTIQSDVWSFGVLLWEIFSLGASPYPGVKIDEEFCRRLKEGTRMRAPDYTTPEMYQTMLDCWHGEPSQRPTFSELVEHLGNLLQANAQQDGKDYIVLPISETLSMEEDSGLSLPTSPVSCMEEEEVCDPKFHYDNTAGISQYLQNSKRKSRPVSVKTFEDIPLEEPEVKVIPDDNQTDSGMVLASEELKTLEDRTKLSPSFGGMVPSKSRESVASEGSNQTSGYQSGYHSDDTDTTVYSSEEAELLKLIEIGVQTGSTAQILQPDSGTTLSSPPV

SMILES	inhibition at 10 µM (NCI/ADR-RES)	inhibition at 10 µM (UACC-257)	inhibition at 10 µM (HOP-92)	inhibition at 10 µM (UACC-62)	inhibition at 10 µM (HL-60(TB))	inhibition at 10 µM (786–0)	inhibition at 10 µM (LOX IMVI)	inhibition at 10 µM (NCI-H23)	inhibition at 10 µM (SF-539)	inhibition at 10 µM (NCI-H322M)	inhibition at 10 µM (VEGFR-2)	inhibition at 10 µM [1, 2]	inhibition at 10 µM [1, 3]	GI50 (NCI/ADR-RES)	GI50 (UACC-257)	GI50 (UACC-62)	GI50 (HL-60(TB))	GI50 (786–0)	GI50 (LOX IMVI)	GI50 (NCI-H23)	further results
COc1ccc(-c2nc3cc(C(=O)NN=Cc4cccc(O)c4)ccc3[nH]2)cc1 [8i, N'-(3-Hydroxybenzylidene)-2-(4-methoxyphenyl)-1H-benzo[d]imidazole-5-carbohydrazide]	< 5%	47.4%	27%	50.8%	55.1%	23.4%	26.1%	6.56%	53.3%	18.3%	45.2 ± 2.22%	33.1%	33.1%	–	–	–	–	–	–	–	–
COc1ccc(-c2nc3cc(C(=O)NN=Cc4cccc(OC)c4)ccc3[nH]2)cc1 [8j, N'-(3-Methoxybenzylidene)-2-(4-methoxyphenyl)-1H-benzo[d]imidazole-5-carbohydrazide]	32%	57.7%	> 100%	58.9%	30.4%	> 100%	> 100%	> 100%	34.1%	> 100%	15.7 ± 1.41%	100%	> 100%	6.35 µM	11 µM	6.5 µM	36.5 µM	3.84 µM	1.98 µM	2.95 µM	GI50 (SF-539): 11.5 µM; GI50 (NCI-H322M): 3.03 µM; GI50 [1]: 5.24 µM
COc1ccc(-c2nc3cc(C(=O)NN=Cc4cccc(OC)c4O)ccc3[nH]2)cc1 [8k, N'-(2-Hydroxy-3-methoxybenzylidene)-2-(4-methoxyphenyl)-1H-benzo[d]imidazole-5-carbohydrazide]	28.1%	> 100%	70.4%	98%	> 100%	> 100%	> 100%	> 100%	> 100%	95.9%	69.5 ± 4.37%	> 100%	> 100%	> 100 µM	3.43 µM	2.78 µM	7.66 µM	3.69 µM	2.34 µM	2.14 µM	GI50 (SF-539): 2.8 µM; GI50 (NCI-H322M): 3.04 µM; GI50 [1]: 7.7 µM
COc1ccc(-c2nc3cc(C(=O)NN=Cc4ccc(OC)c(O)c4)ccc3[nH]2)cc1 [8l, N'-(3-Hydroxy-4-methoxybenzylidene)-2-(4-methoxyphenyl)-1H-benzo[d]imidazole-5-carbohydrazide]	< 5%	52.9%	17.4%	47.6%	52.2%	18.1%	37.9%	24%	42.6%	24%	50.6 ± 5.29%	34.4%	34.4%	–	–	–	–	–	–	–	–
COc1ccc(-c2nc3cc(C(=O)NN=Cc4cc(OC)ccc4OC)ccc3[nH]2)cc1 [8m, N'-(2,5-Dimethoxybenzylidene)-2-(4-methoxyphenyl)-1H-benzo[d]imidazole-5-carbohydrazide]	< 5%	14.3%	< 5%	6.39%	18.8%	29%	18.8%	< 5%	32.6%	< 5%	6.67 ± 0.08%	10.9%	10.9%	–	–	–	–	–	–	–	–
COc1ccc(-c2nc3cc(C(=O)NN=Cc4cc(OC)c(OC)c(OC)c4)ccc3[nH]2)cc1 [8n, 2-(4-Methoxyphenyl)-N'-(3,4,5-trimethoxybenzylidene)-1H-benzo[d]imidazole-5-carbohydrazide]	< 5%	25.6%	< 5%	68.5%	< 5%	< 5%	7.53%	10.8%	24.4%	< 5%	20.8 ± 1.78%	13.6%	13.6%	–	–	–	–	–	–	–	–
O=C(NN=Cc1ccccc1O)c1ccc2[nH]c(-c3ccc(Cl)cc3)nc2c1 [8o, 2-(4-Chlorophenyl)-N'-(2-hydroxybenzylidene)-1H-benzo[d]imidazole-5-carbohydrazide]	56.4%	42.4%	> 100%	95.3%	47.1%	> 100%	> 100%	> 100%	> 100%	70.2%	22.3 ± 1.95%	> 100%	> 100%	1.15 µM	7.35 µM	1.69 µM	0.31 µM	0.83 µM	0.43 µM	0.31 µM	GI50 (HOP-92; HOP-92, Non-small cell lung cancer, five-dose): > 38.8 µM; GI50 (SF-539): 0.37 µM; GI50 (NCI-H322M): 1.38 µM; GI50 [1]: 5.44 µM
